Measurements from patent publication US20130116209A1, “METHOD FOR SELECTION OF CHEMOTHERAPEUTIC AGENTS FOR ADENOCARCINOMA CANCER” (VENTANA MEDICAL SYSTEMS, INC., priority 2011, published 2013).

Legend:
[1] = test system: pancreatic adenocarcinoma; assay: Retrospective RTOG 9704 study: tumor hENT1 expression (IHC, SP120 antibody) versus overall survival after adjuvant gemcitabine or 5FU; format: in vivo, human; conditions: for OS of Low hENT1 subgroup compared to High hENT1 subgroup / OS across High, Mid and No hENT1 subgroups: Method Six; for OS across High, Mid and No hENT1 subgroups: three subgroups (FIG. 2 score sheet), FIGS. 33-34
Method: The RTOG 9704 study and its results are further described in Regine, W. F. et al. (2008) JAMA 299(9):1019-1026; Regine, W. F. et al. (2011) Ann. Surg. Oncol. 18:1319-1326.
Formalin-fixed, paraffin-embedded (FFPE) specimens have been retrieved from tissue repositories. The specimens were obtained from patients prior to adjuvant therapy. Tissue was processed into tissue microarrays (TMA) at the RTOG Biospecimen Resource center and IHC staining was performed in a central laboratory (Ventana Medical Systems). Stained slides were interpreted by pathologists blind to study outcomes.
Samples have been centralized within the RTOG Biospecimen Resource facility. Tissue micro arrays (TMA) were also constructed in the RTOG Biospecimen Resource facility. Three cores from each tumor specimen were arrayed on three separate TMAs. A total of 220 cases were arrayed on the TMAs.
Slides from TMAs were prepared and forwarded to the core pathology laboratory (Ventana Medical Systems), and stained by SP120 rabbit monoclonal antibody for detection of hENT1 protein according to established methods. The following parameters were recorded for each specimen based on scoring by a pathologist blinded to the patient's clinical characteristics and outcome: • Intensity of staining (e.g. 0=no stain, 1+=weakly positive, 2+=moderately positive, 3+=strongly positive) • Percentage of tumor cells with staining at each intensity level (% of tumor tissue specifically excluding non-malignant cells/regions) • Pattern of staining (segmented or diffuse) • Cellular compartment (membrane or cytoplasm).

pancreatic cancer = conditions: Stage III/IV disease, gemcitabine monotherapy, unresectable pancreatic cancer; cited from earlier work
[2] = FIG. 3 algorithm (50% of tumor with membrane staining at 10×), FIGS. 4-5
[3] = FIG. 6 algorithm (PP at 2×, 4×, 10× and negative tumor <=50%), FIGS. 7-8

| SMILES | OS of No hENT1 subgroup compared to Low and High hENT1 subgroups ([1]; Method Five, FIG. 19) | OS of combined Low and High hENT1 subgroup compared to No hENT1 subgroup ([1]; Method Five, FIG. 20) | OS of negative hENT1 subgroup compared to Weak, Moderate or Strong subgroups ([1]; Method Four, FIG. 31) | OS of H-score<=20 subgroup compared to H-score 20-80 and >=80 subgroups ([1]; Method One, FIG. 23) | OS of H-score>=50 patients compared to H-score <50 patients ([1]; Method One, FIG. 24) | OS of Low hENT1 subgroup compared to High hENT1 subgroup [1, 2] | OS of Low hENT1 subgroup compared to High hENT1 subgroup [1, 3] | OS across High, Mid and No hENT1 subgroups [1] | OS of negative hENT1 subgroup compared to Segmental or Diffuse subgroups ([1]; Method Three, FIG. 27) | OS of patients with detectable hENT1 (S or D) compared to no hENT1 expression ([1]; Method Three, FIG. 28) | OS of subgroup N, 20× or 40× compared to subgroup PP at 2×, 4× or 10× ([1]; Method Two (magnification), FIGS. 15-16) | median OS (pancreatic cancer) | median OS as hENT1 expression increases from No to Low to High ([1]; Method Five (percent negative staining), FIG. 18) | median OS as hENT1 expression increases from Negative to Weak to Moderate to Strong ([1]; Method Four (staining intensity), FIG. 30) | median OS as hENT1 expression (H-score subgroup) increases ([1]; Method One (H-score), FIG. 22) | median OS as hENT1 expression increases from Negative to Segmental to Diffuse ([1]; Method Three (staining pattern), FIG. 26) |
| --- | --- | --- | --- | --- | --- | --- | --- | --- | --- | --- | --- | --- | --- | --- | --- | --- |
| Nc1ccn([C@@H]2O[C@H](CO)[C@@H](O)C2(F)F)c(=O)n1 [gemcitabine] | shorter OS | longer OS | shorter OS | shorter OS | longer OS | shorter OS | shorter OS | No hENT1 expression exhibited the shortest OS followed by the Mid hENT1 subgroup and the High hENT1 subgroup had the longest OS | shorter OS | longer OS | shorter OS | 5-7 months |  |  |  |  |
| O=c1[nH]cc(F)c(=O)[nH]1 [5FU, 5-Fluorouracil] |  |  |  |  |  | do not demonstrate improvement in OS | do not demonstrate improvement in OS | do not demonstrate improvement in OS |  |  |  |  | do not demonstrate an improvement in OS | do not demonstrate an improvement in OS | do not demonstrate an improvement in OS | do not demonstrate an improvement in OS |
